Legend:
Format in all cases: cell-based
SNU-423 cells = assay: MTS cell proliferation assay, SNU-423; conditions: Homo sapiens, 120 hrs incubation
Description: (§1) Cell lines and culture conditions: Human colon cancer cells Caco-2, HT29 and HCT15, human pancreatic cancer cells BxPC3, CFPAC-1, and CAPAN-2, liver cancer cells SNU423 and kidney cells HEK293, were obtained from American Type Culture Collection (Rockville, USA). HeLa, DLD1, U937, THP-1, and NIH3T3 cells were obtained from ATCC. Huh7 cells were obtained from (Japanese Cancer Resources Bank). HeLa cells, Huh7, DLD1 and NIH-3T3 cells were cultured in DMEM (Dulbecco's modification of Eagle's Medium; Corning) supplemented with 10% Fetal Bovine Serum (FBS; Invitrogen) and 10% Fetal Calf Serum (FCS; Atlanta Biologicals) respectively. U937, BxPC3, HCT15, SNU423 and THP-1 cells were grown in RPMI-1640 (Roswell Park Memorial Institute; Corning) supplemented with 10% Fetal Bovine Serum (FBS; Invitrogen). CFPAC-1 cells were cultured in Iscove's Modified Dulbecco's Medium (ATCC) supplemented with 10% FBS. CAPAN-2 and HT29 cells were cultured in McCoy's 5a medium supplemented with 10% FBS. Caco2 and HEK293 cells were grown in Eagle's Minimum Essential Medium (ATCC) with final 20% FBS concentration. All cells were maintained at 37° C. in 5% CO2 at constant 70% humidity.
(§2) MTS cell proliferation assay: Cells were detached from the plates using trypsin (0.25% for 3 mins, ATCC) and counted using a hemocytometer and were plated at 3000-1500 cells per well, in a 96-well format. The cells were seeded in the inner wells of 96 well plates, and media was added to the outer wells (blank). For NIH-3T3, 1500 cells were seeded in the inner wells of 96-well plates, and after 20 hours cells were treated with compound or DMSO (vehicle control) at appropriate concentrations (DMSO at final concentration of 1%). For other adherent cells 3000 HeLa, BxPC3, CFPAC-1, CAPAN-2, HEK293, HCT15, HT29, CaCo2, DLD1, Huh7 or SNU423 cells were seeded in in each well approximately 20 hrs prior to the treatment. For U937 and THP-1 suspension cells, 2500 cells were added to the wells of a 96-well plate on the day of treatment. After a 72-hour (or 120 hrs for BxPC3, CAPAN-2, SNU423) incubation with compound or vehicle, cell growth was assessed via the Promega CellTiter 96® AQueous One Solution Cell Proliferation Assay, a colorimetric method to determine the number of viable cells. 20 μL of the CellTiter 96® AQueous One Solution Reagent was added directly into cultured wells and incubated for approximately one hour, after which the absorbance at 490 nm was read with a 96-well plate reader (Opys MR Microplate Reader). GI50 values were determined from plots of the percentage of compound-treated cell growth to vehicle cell growth vs. compound concentration (GraphPad Prism; non-linear regression, log inhibitor verse normalized response with variable slope).

HCT-15 cells = assay: MTS cell proliferation assay, HCT-15; conditions: Homo sapiens, 72-hour incubation
Description: (§3) Cell lines and culture conditions: Human colon cancer cells Caco-2, HT29 and HCT15, human pancreatic cancer cells BxPC3, CFPAC-1, and CAPAN-2, liver cancer cells SNU423 and kidney cells HEK293, were obtained from American Type Culture Collection (Rockville, USA). HeLa, DLD1, U937, THP-1, and NIH3T3 cells were obtained from ATCC. Huh7 cells were obtained from (Japanese Cancer Resources Bank). HeLa cells, Huh7, DLD1 and NIH-3T3 cells were cultured in DMEM (Dulbecco's modification of Eagle's Medium; Corning) supplemented with 10% Fetal Bovine Serum (FBS; Invitrogen) and 10% Fetal Calf Serum (FCS; Atlanta Biologicals) respectively. […]
(§4) MTS cell proliferation assay: Cells were detached from the plates using trypsin (0.25% for 3 mins, ATCC) and counted using a hemocytometer and were plated at 3000-1500 cells per well, in a 96-well format. […] After a 72-hour (or 120 hrs for BxPC3, CAPAN-2, SNU423) incubation with compound or vehicle, cell growth was assessed via the Promega CellTiter 96® AQueous One Solution Cell Proliferation Assay, a colorimetric method to determine the number of viable cells. 20 μL of the CellTiter 96® AQueous One Solution Reagent was added directly into cultured wells and incubated for approximately one hour, after which the absorbance at 490 nm was read with a 96-well plate reader (Opys MR Microplate Reader). […]

CaCo-2 cells = assay: MTS cell proliferation assay, CaCo-2; conditions: Homo sapiens, 72-hour incubation
Description: as §3, §4

HT-29 cells = assay: MTS cell proliferation assay, HT-29; conditions: Homo sapiens, 72-hour incubation
Description: as §3, §4

HuH7 cells = assay: MTS cell proliferation assay, HuH7; conditions: Homo sapiens, Huh-7, 72-hour incubation
Description: as §1, §2

HeLa cells = assay: MTS cell proliferation assay, HeLa; conditions: Homo sapiens, 72-hour incubation
Description: as §1, with “All cells were maintained at 37° C. in 5% CO2 at constant 70% humidity.” left out
(§5) MTS cell proliferation assay: Cells were detached from the plates using trypsin (0.25% for 3 mins, ATCC) and counted using a hemocytometer and were plated at 3000-1500 cells per well, in a 96-well format. […] After a 72-hour (or 120 hrs for BxPC3, CAPAN-2, SNU423) incubation with compound or vehicle, cell growth was assessed via the Promega CellTiter 96® AQueous One Solution Cell Proliferation Assay, a colorimetric method to determine the number of viable cells. 20 μL of the CellTiter 96® AQueous One Solution Reagent was added directly into cultured wells and incubated for approximately one hour, after which the absorbance at 490 nm was read with a 96-well plate reader (Opys MR Microplate Reader). GI50 values were determined from plots of the percentage of compound-treated cell growth to vehicle cell growth vs. compound concentration (GraphPad Prism; non-linear regression, log inhibitor verse normalized response with variable slope).

NIH 3T3 cells = assay: MTS cell proliferation assay, NIH 3T3; conditions: Mus musculus, NIH3T3, 72-hour incubation
Description: as §1, with “All cells were maintained at 37° C. in 5% CO2 at constant 70% humidity.” left out
as §5

Work on CCOc1cc(N(C)C)ccc1C1CC(=O)Nc2cc3c(cc21)OCCO3 (racemic) [FQI-37, 9-[4-(dimethylamino)-2-ethoxy-phenyl]-3,6,8,9-tetrahydro-2H-[1,4]dioxino[2,3-g]quinolin-7-one] yielded a GI50 (SNU-423 cells) of 141 nM, a GI50 (HCT-15 cells) of 18 nM and a GI50 (CaCo-2 cells) of 141 nM. The GI50 (HT-29 cells) was 398 nM and the GI50 (HuH7 cells) was 70 nM.

With CCOc1cc(N(C)C)ccc1[C@@H]1CC(=O)Nc2cc3c(cc21)OCO3 [(R)-FQI-34] the GI50 (SNU-423 cells) was 251 nM, the GI50 (HuH7 cells) was 158 nM and the GI50 (HeLa cells) was 300 nM. The GI50 (NIH 3T3 cells) was 5.8 µM.

Work on CCOc1cc(N(C)C)ccc1[C@@H]1CC(=O)Nc2cc3c(cc21)OCCO3 [(R)-FQI-37] yielded a GI50 (SNU-423 cells) of 147 nM and a GI50 (HuH7 cells) of 126 nM.

— patent US11420977B2, “Late SV40 (LSF) inhibitors” (Trustees of Boston University, priority 2018, dated 2022)
